The results in this text go back to patent publication US20050228052A1, “Methods of treating, preventing and managing a sleep disorder using (S)-didesmethylsibutramine” (priority 2004, published 2005).

The target of test [1] is nonselective muscarinic receptor. Kind of test: Binding at the nonselective muscarinic receptor. On the set-up: species or system rat.
In test [2] the target is T1, human recombinant norepinephrine (NE) uptake site (Homo sapiens, UniProt P23975).
T1 construct: expressed in transfected cells
As to the kind of experiment: Binding at the norepinephrine (NE) uptake site.

Test [3] deals with serotonin (5-HT) uptake site (Rattus norvegicus, UniProt P31652). The note with it: summary of the table data. On the procedure:
IC50 values (concentration required to inhibit 50% specific binding) were then determined by nonlinear regression analysis of the curves and tabulated below.

Where two headings read alike, the source gives them in different places.

T1 sequence (P23975 whole entry): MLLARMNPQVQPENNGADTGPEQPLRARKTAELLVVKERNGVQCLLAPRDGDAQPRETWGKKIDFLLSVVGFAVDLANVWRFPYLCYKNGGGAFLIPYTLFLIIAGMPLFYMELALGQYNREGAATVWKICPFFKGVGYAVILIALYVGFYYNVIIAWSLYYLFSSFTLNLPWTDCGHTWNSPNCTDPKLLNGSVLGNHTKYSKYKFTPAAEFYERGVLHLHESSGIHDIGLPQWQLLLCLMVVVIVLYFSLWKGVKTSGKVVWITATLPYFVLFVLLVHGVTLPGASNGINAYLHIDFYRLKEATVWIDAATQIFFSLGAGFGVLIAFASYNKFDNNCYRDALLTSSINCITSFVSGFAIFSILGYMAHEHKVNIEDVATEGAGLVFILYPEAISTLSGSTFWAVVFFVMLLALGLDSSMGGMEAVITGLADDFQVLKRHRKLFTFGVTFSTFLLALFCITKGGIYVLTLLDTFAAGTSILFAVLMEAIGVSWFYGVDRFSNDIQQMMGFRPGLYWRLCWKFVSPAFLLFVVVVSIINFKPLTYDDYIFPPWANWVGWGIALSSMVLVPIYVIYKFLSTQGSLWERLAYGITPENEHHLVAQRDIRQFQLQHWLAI
serotonin (5-HT) uptake site, sequence (P31652 whole entry): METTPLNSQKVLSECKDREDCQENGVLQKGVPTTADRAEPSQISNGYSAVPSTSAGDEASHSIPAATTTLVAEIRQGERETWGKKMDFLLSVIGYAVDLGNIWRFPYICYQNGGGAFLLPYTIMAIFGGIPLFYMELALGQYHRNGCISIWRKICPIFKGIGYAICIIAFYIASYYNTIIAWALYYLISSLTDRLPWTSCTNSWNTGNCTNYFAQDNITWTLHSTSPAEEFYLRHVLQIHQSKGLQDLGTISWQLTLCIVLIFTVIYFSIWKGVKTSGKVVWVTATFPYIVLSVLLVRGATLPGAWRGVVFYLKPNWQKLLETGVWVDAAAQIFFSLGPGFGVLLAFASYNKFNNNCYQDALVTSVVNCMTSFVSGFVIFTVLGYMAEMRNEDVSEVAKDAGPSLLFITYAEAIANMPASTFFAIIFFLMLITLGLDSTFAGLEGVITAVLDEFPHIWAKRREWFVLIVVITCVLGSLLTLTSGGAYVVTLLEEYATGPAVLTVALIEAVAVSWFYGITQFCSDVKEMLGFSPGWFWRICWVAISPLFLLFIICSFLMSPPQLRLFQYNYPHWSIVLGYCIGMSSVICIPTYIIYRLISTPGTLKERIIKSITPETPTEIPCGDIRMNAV

As for `CN1[C@@H]2CC[C@H]1C[C@@H](OC(=O)C(CO)c1ccccc1)C2` (stereo partly shown) [Atropine, reference compound], the IC50 in test [1] (rat cerebral cortex, inhibition of specific binding, competition curves, read-out: Binding IC50 Values (nM) Mucarinic Receptor) was determined as 0.31 nM. Turning to `CC(C)CC(N)C1(c2ccc(Cl)cc2)CCC1` (racemic) [(R/S)-DDMS], the IC50 in test [2] (human recombinant NE uptake site, single value or first value before slash, read-out: Binding IC50 Values (nM) NE Uptake) was 16 nM. As to `CC(C)C[C@H](N)C1(c2ccc(Cl)cc2)CCC1` [(S)-DDMS, 1-[1-(4-chlorophenyl)cyclobutyl]-3-methyl-butylamine], the “Affinity for the muscarinic site, result in words” value in test [1] (summary of the table data) is reported as “without appreciable 5-HT or muscarinic activity”. For the same compound, in test [3], the “5-HT uptake site binding, result in words” value is on record as “without appreciable 5-HT or muscarinic activity”. Further, the IC50 in test [2] was found to be 6.2 nM. Moreover, the “NE uptake site binding, result in words” value in test [2] (summary of the table data) is given as “potent inhibitor of NE uptake”. Regarding `CC(C)C[C@@H](N)C1(c2ccc(Cl)cc2)CCC1` [(R)-DDMS], in test [2], the IC50 came out at 13 nM.
